Measurements: patent US11230526B1, “Cylcoalkenyl derivatives useful as agonists of the GPR120 and/or GPR40 receptors” (Janssen Pharmaceutica NV, priority 2018, dated 2022)

How the values were obtained:
human GPR40 = target: T1, human GPR40 (Homo sapiens, UniProt O14842); assay: GPR40 calcium flux assay, human GPR40; type: cell-based; conditions: HEK293 cells stably expressing GPR40; table does not say human or rat
T1 construct: expressed in transfected cells
How it was run: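 Cells preincubated 1 h at 37° C. in HBSS, 20 mM HEPES, 0.1% BSA, then Fluo 8 calcium dye 30 min at 37° C. and 15 min at room temperature.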

Human GPR120 short form = target: T2, Human GPR120 short form (Homo sapiens, UniProt Q5NUL3); assay: Human GPR120 calcium flux assay, Procedure Calcium B (4200 cells/well); type: cell-based
T2 construct: expressed in transfected cells
T2 sequence (Q5NUL3 1-361): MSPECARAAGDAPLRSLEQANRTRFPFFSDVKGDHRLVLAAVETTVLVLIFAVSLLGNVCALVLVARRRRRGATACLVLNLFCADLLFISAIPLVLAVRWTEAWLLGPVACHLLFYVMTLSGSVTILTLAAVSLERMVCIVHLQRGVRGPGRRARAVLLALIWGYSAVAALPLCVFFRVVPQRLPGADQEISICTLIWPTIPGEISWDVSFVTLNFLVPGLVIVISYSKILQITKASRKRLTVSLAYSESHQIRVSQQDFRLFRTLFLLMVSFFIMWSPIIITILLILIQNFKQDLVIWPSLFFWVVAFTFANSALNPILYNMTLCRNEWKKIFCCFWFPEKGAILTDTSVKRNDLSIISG
How it was run: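 Agonist EC50 came from a four-parameter fit of RFU (Fmax−Fmin) read over 300 s on FLIPR. Cells were HEK293 stably transfected with human GPR120 (NM_001195755.1) at 4200 per well, serum-starved 1 h and loaded with Fluo-4 NW dye with probenecid before ligand addition.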

T1 sequence (O14842 whole entry): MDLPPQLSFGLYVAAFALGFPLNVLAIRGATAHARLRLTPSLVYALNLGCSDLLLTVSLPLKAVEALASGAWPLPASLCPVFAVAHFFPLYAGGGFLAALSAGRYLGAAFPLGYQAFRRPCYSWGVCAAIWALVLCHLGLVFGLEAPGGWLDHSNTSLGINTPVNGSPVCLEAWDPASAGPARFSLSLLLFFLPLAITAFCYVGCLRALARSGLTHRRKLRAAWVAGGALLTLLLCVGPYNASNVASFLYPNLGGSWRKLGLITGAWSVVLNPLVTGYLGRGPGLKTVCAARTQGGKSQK

Structure (SMILES) | EC50 (human GPR40) | EC50 (Human GPR120 short form)
Cc1ccc(CC2=C(COc3ccc(CCC(=O)O)c(C(F)(F)F)c3)CCC2)cc1 [Compound 345, 3-[4-[[2-(p-tolylmethyl)cyclopenten-1-yl]methoxy]-2-(trifluoromethyl)phenyl]Propanoic Acid] | 67 nM | 3020 nM
Cc1ccc(CC2=C(COc3ccc(CCC(=O)O)cc3)CCC2)cc1 [Compound 346, 3-[4-[[2-(p-tolylmethyl)cyclopenten-1-yl]methoxy]phenyl]Propanoic Acid] | 228 nM | 1300 nM
Cc1ccc(CC2=C(COc3cc(C)c(CCC(=O)O)cc3F)CCC2)cc1 [Compound 347, 3-[5-fluoro-2-methyl-4-[[2-(p-tolylmethyl)cyclopenten-1-yl]methoxy]phenyl]Propanoic Acid] | 897 nM | 1800 nM
Cc1ccc(CC2=C(COc3ccc(CCC(=O)O)c(Cl)c3)CCC2)cc1 [Compound 348, 3-[2-chloro-4-[[2-(p-tolylmethyl)cyclopenten-1-yl]methoxy]phenyl]Propanoic Acid] | 57 nM | 2360 nM
O=C(O)CCc1ccc(OCC2=C(Cc3ccc(F)cc3)CCC2)cc1Cl [Compound 349, 3-[2-chloro-4-[[2-[(4-fluorophenyl)methyl]cyclopenten-1-yl]methoxy]phenyl]Propanoic Acid] | 60 nM | 1900 nM
Cc1cc(OCC2=C(Cc3ccc(F)cc3)CCC2)c(F)cc1CCC(=O)O [Compound 350, 3-[5-fluoro-4-[[2-[(4-fluorophenyl)methyl]cyclopenten-1-yl]methoxy]-2-methyl-phenyl]Propanoic Acid] | 669 nM | 1770 nM
O=C(O)CCc1ccc(OCC2=C(C3CC3)CCC2)cc1C(F)(F)F [Compound 351, 3-[4-[(2-cyclopropylcyclopenten-1-yl)methoxy]-2-(trifluoromethyl)phenyl]Propanoic Acid] | 1230 nM | > 5000 nM
Cc1cc(OCC2=C(C3=CCCCC3)CCC2)c(F)cc1CCC(=O)O [Compound 352, 3-[4-[[2-(cyclohexen-1-yl)cyclopenten-1-yl]methoxy]-5-fluoro-2-methyl-phenyl]Propanoic Acid] | > 10000 nM | > 5000 nM
O=C(O)CCc1ccc(OCC2=C(Cc3ccc(F)cc3)CCC2)cc1C(F)(F)F [Compound 353, 3-[4-[[2-[(4-fluorophenyl)methyl]cyclopenten-1-yl]methoxy]-2-(trifluoromethyl)phenyl]Propanoic Acid] | 46 nM | 1330 nM
O=C(O)CCc1ccc(OCC2=C(C3=CCCCC3)CCC2)cc1C(F)(F)F [Compound 354, 3-[4-[[2-(cyclohexen-1-yl)cyclopenten-1-yl]methoxy]-2-(trifluoromethyl)phenyl]Propanoic Acid] | 825 nM | 1770 nM
O=C(O)CCc1ccc(OCC2=C(C3=CCCCC3)CCC2)cc1Cl [Compound 355, 3-[2-chloro-4-[[2-(cyclohexen-1-yl)cyclopenten-1-yl]methoxy]phenyl]Propanoic Acid] | 3690 nM | > 5000 nM
O=C(O)CCc1ccc(OCC2=C(Cc3ccc(Cl)cc3)CCC2)cc1Cl [Compound 356, 3-[2-chloro-4-[[2-[(4-chlorophenyl)methyl]cyclopenten-1-yl]methoxy]phenyl]Propanoic Acid] | 68 nM | 2540 nM
Cc1cc(OCC2=C(Cc3ccccc3)CC(F)(F)C2)c(F)cc1CCC(=O)O [Compound 357, 3-[4-[(2-benzyl-4,4-difluoro-cyclopenten-1-yl)methoxy]-5-fluoro-2-methyl-phenyl]Propanoic Acid] | 653 nM | 664 nM
O=C(O)CCc1ccc(OCC2=C(Cc3ccccc3)CC(F)(F)C2)cc1C(F)(F)F [Compound 358, 3-[4-[(2-benzyl-4,4-difluoro-cyclopenten-1-yl)methoxy]-2-(trifluoromethyl)phenyl]Propanoic Acid] | 65 nM | 951 nM
